As a reminder, the logP is the decadic logarithm of the partition coefficient of the neutral form, usually between octanol and water.

SMILES strings stand for the structures.

`O=C1c2ccc(O)cc2OC(c2ccc(O)c(O)c2)C1O` (configuration not stated) came in with a lipophilicity (logP) of 0.87.
The value for `O=C1C[C@@H](c2ccc(O)cc2)Oc2cc(O)cc(O)c21` was 2.52; that for `COc1ccc([C@@H]2CC(=O)c3c(O)cc(O)cc3O2)cc1O` was 2.6.
The value for `O=c1cc(-c2ccc(O)cc2)oc2cc(O)cc(O)c12` was 3.02; that for `O=C1CC(c2cccc(O)c2)Oc2cc(O)cc(O)c21` (configuration not stated) was 2.61.
Under `O=c1cc(-c2ccccc2)oc2cccc(O)c12` stands 4.3.
`COc1ccc(-c2cc(=O)c3c(O)cc(O)cc3o2)cc1O` had a lipophilicity (logP) of 3.1.
The value for `O=c1cc(-c2ccccc2)oc2cc(O)cc(O)c12` was 3.52.
The value for `Oc1cc(O)c2c(c1)O[C@H](c1ccc(O)c(O)c1)[C@@H](O)C2` was 0.51.
The value for `O=C1CC(c2ccc(O)c(O)c2)Oc2cccc(O)c21` (configuration not stated) was 2.81.
In the case of `O=c1cc(-c2ccc(O)c(O)c2)oc2cc(O)cc(O)c12`, the logP is 2.53.
The value for `O=C1CC(c2ccc(O)c(O)c2)Oc2cc(O)cc(O)c21` (configuration not stated) was 2.02; that for `O=C1C[C@@H](c2ccc(O)c(O)c2)Oc2cc(O)ccc21` was 1.94; that for `O=c1cc(-c2ccc(O)c(O)c2)oc2cccc(O)c12` was 3.31.
The value for `O=C1c2c(O)cc(O)cc2O[C@H](c2ccc(O)c(O)c2)[C@H]1O` was 0.95; that for `C[C@@H]1O[C@@H](O[C@H]2[C@H](Oc3cc(O)c4c(c3)O[C@H](c3ccc(O)cc3)CC4=O)O[C@H](CO)[C@@H](O)[C@@H]2O)[C@H](O)[C@H](O)[C@H]1O` was -0.44.
Under `COc1ccc(-c2cc(=O)c3c(O)cc(O[C@@H]4O[C@H](CO[C@@H]5O[C@@H](C)[C@H](O)[C@@H](O)[C@H]5O)[C@@H](O)[C@H](O)[C@H]4O)cc3o2)cc1O` stands 0.14.
